Values of other authors as cited in US7244749B2, “Compositions and methods for lowering plasma lipoprotein(a) and risk factors of cardiovascular diseases” (priority 2000, dated 2007).

System: plasma Lp(a)
Details: males with prostatic cancer

## Estrogen
  reduction of plasma Lp(a): 50%
